{"source": "paper PMC2858875", "about": "(Chemistry & biology, 2010)", "key": {"[1]": {"system": "M-CSF stimulated Ser473 p-Akt production in THP-1 monocytes", "experiment": "THP-1 signaling assay, M-CSF stimulated Ser473 p-Akt", "format": "cell-based", "settings": "50ng/mL CSF-1 for 7 minutes, FACS"}, "[2]": {"system": "MCP-1 stimulated Ser473 p-Akt production in THP-1 monocytes", "experiment": "THP-1 signaling assay, MCP-1 stimulated Ser473 p-Akt", "format": "cell-based", "settings": "100nM MCP-1 for 5 minutes, FACS"}, "PI3Kδ": {"biological_target": "T1, PI3Kδ (Homo sapiens, UniProt O00329)", "T1 sequence (O00329 1-1044)": "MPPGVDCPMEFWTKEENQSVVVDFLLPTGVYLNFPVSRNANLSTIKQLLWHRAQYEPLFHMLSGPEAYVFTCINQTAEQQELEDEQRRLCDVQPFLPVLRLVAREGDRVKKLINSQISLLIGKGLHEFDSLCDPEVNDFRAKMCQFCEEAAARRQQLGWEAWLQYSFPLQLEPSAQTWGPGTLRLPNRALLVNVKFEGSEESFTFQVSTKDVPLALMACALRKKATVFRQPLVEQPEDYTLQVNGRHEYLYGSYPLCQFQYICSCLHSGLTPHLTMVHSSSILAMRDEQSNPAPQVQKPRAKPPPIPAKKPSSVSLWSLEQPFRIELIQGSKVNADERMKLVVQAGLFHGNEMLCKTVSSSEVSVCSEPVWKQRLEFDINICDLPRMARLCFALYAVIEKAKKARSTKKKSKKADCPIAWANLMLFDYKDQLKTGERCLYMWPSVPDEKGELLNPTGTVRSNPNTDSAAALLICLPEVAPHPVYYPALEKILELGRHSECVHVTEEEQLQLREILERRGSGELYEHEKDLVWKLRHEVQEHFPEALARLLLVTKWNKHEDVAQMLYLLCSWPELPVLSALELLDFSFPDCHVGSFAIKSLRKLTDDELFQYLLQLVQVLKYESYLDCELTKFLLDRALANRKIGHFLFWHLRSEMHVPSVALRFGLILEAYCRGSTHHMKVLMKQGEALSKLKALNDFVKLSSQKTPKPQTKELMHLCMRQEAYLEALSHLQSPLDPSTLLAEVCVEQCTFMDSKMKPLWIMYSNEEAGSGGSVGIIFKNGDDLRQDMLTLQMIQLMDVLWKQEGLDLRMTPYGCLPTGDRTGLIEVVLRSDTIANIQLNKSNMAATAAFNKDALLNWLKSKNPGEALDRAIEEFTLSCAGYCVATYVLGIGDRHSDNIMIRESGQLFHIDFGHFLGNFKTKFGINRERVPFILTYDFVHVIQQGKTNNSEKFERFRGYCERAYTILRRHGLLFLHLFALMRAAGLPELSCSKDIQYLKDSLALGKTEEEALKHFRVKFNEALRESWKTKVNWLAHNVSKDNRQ", "experiment": "Class I PI3K kinase assay", "settings": "biochemical assay, 10μM ATP"}, "all PI3K isoforms": {"system": "all PI3K isoforms", "settings": "at 300nM; ref Camps et al., 2005; cited from earlier work"}, "PBMC/HUVEC co-culture [3]": {"system": "PBMC/HUVEC co-culture", "format": "cell-based, human"}, "PBMC/HUVEC co-culture [4]": {"system": "PBMC/HUVEC co-culture"}}}
{"molecule": "O=C1NC(=O)/C(=C\\c2ccc3nccnc3c2)S1", "note": "[AS605240]", "values": [{"measurement": "block of M-CSF stimulated Ser473 p-Akt production", "setting": "[1]", "result": "ineffective"}, {"measurement": "block of MCP-1 stimulated Ser473 p-Akt production", "setting": "[2]", "result": "blocked"}, {"measurement": "potency against PI3Kδ (in words)", "setting": "PI3Kδ", "result": "do not significantly inhibit PI3Kδ at the doses tested"}, {"measurement": "inhibition of all PI3K isoforms", "setting": "all PI3K isoforms", "result": "inhibits all PI3K isoforms"}]}
{"molecule": "Cc1ccccc1-n1c(Cn2cnc3c(N)ncnc32)nc2cccc(C)c2c1=O", "note": "[IC87114]", "values": [{"measurement": "E-selectin expression in directly stimulated HUVECs", "setting": "HUVECs; 3C system", "result": "did not inhibit E-selectin expression"}]}
{"molecule": "COc1ccc2c(c1OC)N=C(NC(=O)c1cccnc1)N1CCN=C21", "note": "[PIK90]", "values": [{"measurement": "CCL2/MCP-1 production", "setting": "PBMC/HUVEC co-culture [3]", "result": "modest effects"}, {"measurement": "CD38 production", "setting": "PBMC/HUVEC co-culture [3]", "result": "modest effects"}, {"measurement": "PBMC proliferation", "setting": "PBMC/HUVEC co-culture [3]", "result": "decrease"}, {"measurement": "cell viability", "setting": "PBMC/HUVEC co-culture [4]", "result": "little effect"}, {"measurement": "CD40 level", "setting": "PBMC/HUVEC co-culture [4]; LPS system", "result": "significantly reduced"}, {"measurement": "HUVEC viability: sulforhodamine B (SRB) protein binding", "setting": "HUVECs", "result": "< -0.3", "unit": "log ratio"}, {"measurement": "HLA-DR level", "setting": "HUVECs; 3C system", "result": "strongly inhibited"}, {"measurement": "urokinase receptor (CD87/uPAR) level", "setting": "HUVECs; 3C system", "result": "strongly inhibited"}, {"measurement": "HUVEC proliferation", "setting": "HUVECs; HUVEC-only culture", "result": "inhibited HUVEC proliferation"}]}
